Patent US6121296A, “Transition-state inhibitors for nucleoside hydrolase and transferase reactions” (Albert Einstein College of Medicine of Yeshiva University, priority 1998, dated 2000)
Like-named read-outs stand apart in the source and are kept apart here.

T1: nucleoside hydrolase (Crithidia fasciculata, UniProt Q27546)
T1 construct: nucleoside hydrolase was purified from C. fasciculata as described above; endogenous in cells; host or cells: Crithidia fasciculata cells grown in a 300-liter fermenter
T1 sequence (Q27546 1-315): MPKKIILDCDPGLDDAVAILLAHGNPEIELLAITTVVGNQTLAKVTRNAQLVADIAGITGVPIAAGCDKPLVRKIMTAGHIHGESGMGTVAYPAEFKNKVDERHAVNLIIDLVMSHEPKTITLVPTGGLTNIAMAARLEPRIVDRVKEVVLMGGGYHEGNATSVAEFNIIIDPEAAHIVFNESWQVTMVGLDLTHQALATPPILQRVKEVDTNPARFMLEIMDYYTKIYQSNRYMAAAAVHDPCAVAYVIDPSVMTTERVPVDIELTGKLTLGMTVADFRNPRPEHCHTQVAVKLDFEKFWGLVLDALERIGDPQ


Key:
nucleoside hydrolase = molecular target: T1, nucleoside hydrolase; assay: Inhibition of nucleoside hydrolase, inosine hydrolysis monitored at 280 nm, bis-tris pH 7.3; format: biochemical
Method: All assays were performed at 30° C. in 50 mM bis-tris buffer at pH 7.3. The substrate for all assays was inosine. Inhibition studies were performed by examining the initial velocity of the hydrolysis of inosine as a function of inosine concentration and (2S)-phenyl-(3S,4R)-dihydroxy-(5R)-hydroxymethylpyrrolidine concentration. A total of 75 velocity measurements were made.
The general protocol for measurement was as follows: various concentrations of inosine and inhibitor in the above buffer were prepared, and 1.0 mL aliquots placed in a quartz cuvette and equilibrated at 30° C. […] The decrease in absorption at 280 nm was monitored over a 10 minute period.

IU-nucleoside hydrolase [1] = molecular target: T2, IU-nucleoside hydrolase (Crithidia fasciculata, UniProt Q27546, P2A); assay: biochemical; format: biochemical, C. fasciculata; details: for inhibition pattern: minimum of four substrate and three inhibitor concentrations
T2 construct: contained the coding region for the enzyme; made in house; host or cells: E. coli BL21 (DE3)pLysS, pET3d plasmid
T2 sequence (Q27546 whole entry P2A): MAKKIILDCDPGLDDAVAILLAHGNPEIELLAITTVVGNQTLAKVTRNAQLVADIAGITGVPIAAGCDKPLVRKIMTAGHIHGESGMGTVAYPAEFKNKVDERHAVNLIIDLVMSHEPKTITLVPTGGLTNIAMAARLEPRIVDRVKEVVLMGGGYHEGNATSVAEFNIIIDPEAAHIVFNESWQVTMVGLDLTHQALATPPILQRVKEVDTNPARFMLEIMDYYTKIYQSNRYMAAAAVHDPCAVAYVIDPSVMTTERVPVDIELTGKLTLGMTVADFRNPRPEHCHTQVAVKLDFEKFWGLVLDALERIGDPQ
Source text: Enzymes. Inosine-uridine nucleoside hydrolase (IU-nucleoside hydrolase) was purified from extracts of E. coli strain BL21 (DE3)pLysS which contained the coding region for the enzyme isolated from C. fasciculata in a pET3d expression plasmid. The DNA coding for the enzyme was placed in the NcoI-BamHI site. This construct gives a Pro2Ala substitution which has no significant effect on the kinetic properties of the purified enzyme. The overexpressed enzyme was purified to apparent homogeneity as previously described (Gopaul, et al. (1996) Biochemistry 35, 5963-5970).
(§1) Enzyme Assays. Initial rate measurements were accomplished at 30° C. in reaction mixtures containing 50 mM potassium phosphate, pH 7.5, or 50 mM Hepes, pH 8.0, and nitrophenylribose or inosine as substrates (Mazella, et al. (1996) J. Am. Chem. Soc. 118, 2111-2112). At pH 7.5 the product p-nitrophenylate anion is present at a concentration which gives a millimolar extinction coefficient of 9.3 cm^-1 at 400 nm. Reaction mixtures with nitrophenylribose as substrate were initiated by the addition of enzyme, and product formation was monitored by continuous recording at 400 nm. With inosine as substrate, the conversion to hypoxanthine was monitored continuously at 280 nm (Parkin, et al. (1991) J. Biol. Chem. 266, 20658-20665). […] The remainder of the inhibitors were analyzed at one fixed substrate concentration and variable inhibitor concentrations. Inhibition constants for IAG-nucleoside hydrolase were established from full kinetic analysis with V and X as inhibitors. […] The remainder of the inhibition constants were characterized by titration of assay mixtures containing a fixed concentration of substrate with variable inhibitor concentrations. […] For Ki determination at a fixed substrate concentration, this approach assumes that substrate and inhibitor compete for the catalytic site.
Inhibitors. Iminoribitol inhibitor were synthesized and purified according to the methods of Furneaux, et al. (Tetrahedron (1997) in press), characterized by NMR, dissolved in H2 O and stored at -20° C. The compounds are enzymatically and chemically stable in H2 O and under conditions of the assay. IU-Nucleoside hydrolase is susceptible to slow-onset tight-binding inhibition under certain conditions (Horenstein & Schramm, (1993b) Biochemistry 32, 9917-9925, Boutellier, et al. (1994) Biochemistry, 33, 3994-4000). However, in the initial reaction rate conditions described here, only the rapidly reversible competition between substrate and inhibitor is being observed. Thus, the reported kinetic constants are dissociation constants which exclude slow-onset binding.

IAG-nucleoside hydrolase = IAG-nucleoside hydrolase (Trypanosoma brucei, UniProt Q57ZL6); assay: Inhibition of IAG-nucleoside hydrolase, initial rates; details: for Km /Ki IAG-nucleoside hydrolase: comparison with inosine; for inhibition pattern: full kinetic analysis
Method: The enzyme was purified to apparent homogeneity as determined by denaturing polyacrylamide gel electrophoresis (Parkin, (1996) J. Biol. Chem. 271, 21713-21719). Some of the studies used the T. brucei brucei enzyme which was overexpressed in E. coli.
as §1, with “concentrations.” for “concentrations. Inhibition constants for IAG-nucleoside hydrolase were established from full kinetic analysis with V and X as inhibitors.”
Inhibitors. Iminoribitol inhibitor were synthesized and purified according to the methods of Furneaux, et al. (Tetrahedron (1997) in press), characterized by NMR, dissolved in H2 O and stored at -20° C.

IU-nucleoside hydrolase [2] = molecular target: T2, IU-nucleoside hydrolase; details: cited from earlier work
[3] = substrate: OC[C@H]1O[C@@H](n2cnc3c(O)ncnc32)[C@H](O)[C@@H]1O; assay: purified protein, by the assay type; details: other: inosine as substrate; 30.0 °C
Source text: The IAG-nucleoside hydrolase was purified from the blood-stream form of T. brucei brucei (ILTaT 1.1) grown in sublethally irradiated (650 rads) Sprague-Dawley rats. The enzyme was purified to apparent homogeneity as determined by denaturing polyacrylamide gel electrophoresis (Parkin, (1996) J. Biol. Chem. 271, 21713-21719). Some of the studies used the T. brucei brucei enzyme which was overexpressed in E. coli.
At pH 7.5 the product p-nitrophenylate anion is present at a concentration which gives a millimolar extinction coefficient of 9.3 cm^-1 at 400 nm. Reaction mixtures with nitrophenylribose as substrate were initiated by the addition of enzyme, and product formation was monitored by continuous recording at 400 nm. […] The remainder of the inhibitors were analyzed at one fixed substrate concentration and variable inhibitor concentrations. […] The remainder of the inhibition constants were characterized by titration of assay mixtures containing a fixed concentration of substrate with variable inhibitor concentrations. […] For Ki determination at a fixed substrate concentration, this approach assumes that substrate and inhibitor compete for the catalytic site. In these cases, data were fit to the equation: 1/v=1/kcat +(Km /kcat A)(1+I/Ki)
The compounds are enzymatically and chemically stable in H2 O and under conditions of the assay. […]

[4] = KI IU-nucleoside hydrolase, Table V

Row | Molecule | inhibition pattern (IU-nucleoside hydrolase [1]) | Ki (IAG-nucleoside hydrolase) [µM] | Km /KI IAG-nucleoside hydrolase (IAG-nucleoside hydrolase) | Ki (IU-nucleoside hydrolase [1]; [4]) [µM] | other results
1 | OC[C@H]1N[C@@H](c2ccccc2)[C@H](O)[C@@H]1O [(2S)-phenyl-(3S,4R)-dihydroxy-(5R)-hydroxymethyl-pyrrolidine] |  |  |  |  | binding better than the substrate inosine (nucleoside hydrolase): approximately 2,000 fold; inhibition pattern (nucleoside hydrolase): competitive inhibition pattern; Ki (nucleoside hydrolase; read-out: inhibition constant): 0.15 µM
2 | OC[C@H]1NC[C@H](O)[C@@H]1O [I] | slope-linear competitive inhibitors | 44 ± 4 | 0.41 |  | Ki (IU-nucleoside hydrolase [2]; Table V, from Horenstein and Schramm (1993b), read-out: KI IU-nucleoside hydrolase): 4.5 ± 0.4 µM
3 | OC[C@H]1N[C@@H](c2ccccc2)[C@H](O)[C@@H]1O [V, phenyliminoribitol] | slope-linear competitive inhibitors | 180 | 0.1 |  | Km /Ki IAG-nucleoside hydrolase (IAG-nucleoside hydrolase; Table VI): 0.1; inhibition pattern (IAG-nucleoside hydrolase): competitive inhibition; Ki (IU-nucleoside hydrolase [2]; read-out: KI IU-nucleoside hydrolase, from Horenstein and Schramm (1993b)): 0.3 µM; Ki (IU-nucleoside hydrolase [2]; read-out: Ki IU-nucleoside hydrolase, Table VI, taken from Horenstein and Schramm (1993b)): 0.3 µM
4 | OC[C@H]1O[C@@H](c2ccccc2)[C@H](O)[C@@H]1O [XIII, 1-deoxy-1-C-phenyl-β-D-ribofuranose, reference compound] |  | > 30000 |  |  | Ki (IU-nucleoside hydrolase [1]; Ki IU-nucleoside hydrolase, Table VI, 58 μM nitrophenylriboside, 50 mM Hepes, pH 8.0): 600 µM; Ki (IU-nucleoside hydrolase [1]; inhibition constant IU-enzyme, text b399, unit inferred): 1600 µM; decline of affinity relative to inosine (IAG-nucleoside hydrolase): > 1670 fold; binding / inhibition at 10 mM (IAG-nucleoside hydrolase; 10 mM XIII): no binding can be detected; Km /Ki IAG-nucleoside hydrolase (IAG-nucleoside hydrolase; Table VI): < 0.0006; Ki (IAG-nucleoside hydrolase; read-out: Ki IAG-nucleoside hydrolase, Table VI, XIII: 560 μM nitrophenylriboside, 50 mM Hepes, pH 8.0, lower limit): > 30000 µM
5 | OC[C@H]1N[C@@H](c2ccc(Br)cc2)[C@H](O)[C@@H]1O [XII] | slope-linear competitive inhibitors | 113 ± 5 | 0.16 | 0.028 ± 0.004 | 
6 | OC[C@H]1N[C@@H](c2ccc(Cl)cc2)[C@H](O)[C@@H]1O [XI] | slope-linear competitive inhibitors | 190 ± 8 | 0.095 | 0.03 ± 0.0014 | 
7 | Nc1ccc([C@@H]2N[C@H](CO)[C@@H](O)[C@H]2O)cc1 [X] |  | 12 ± 1 | 1.5 | 0.03 ± 0.002 | binding compared to inosine (IAG-nucleoside hydrolase): binds as well as the preferred substrate, inosine; inhibition pattern (IAG-nucleoside hydrolase): competitive inhibition
8 | IAG-nucleoside hydrolase (Trypanosoma brucei brucei TREU927) (protein) MAKTVILDHDGNKDDFVAMILLLSNPKKVNLIGCICTDADCFVENGFDVTGKIMCAMHRLIKTPLFPIGKSTATAVNAFPTEWRFSAKNLDDMPFLNIVEDVALWEKLKPENEAHNGQQLLADLVMKSKEKVTVCVTGPLSNMAWCIEKYGEAFTSKVEECVIMGGAVDVGGNVFLPTTDGSAEWNIYWDPPAAKKVLCCPNIRCVLFSLDATNTVPVRSVDVKGFGAQNQYLLSQMVGTMWAMSTHEEILRDGDAYYAWDALTAAYILEPTIATLEPVALDVDVSKGKSEGRTPRASGEGKPCVHVARNPSKQMFHDLVFASTRVC |  |  |  |  | Km [3]: 18 ± 1 µM
